Assay [1] concerns Mus musculus. Kind of assay: Effect on hypothermia in Swiss albino mouse assessed as change in rectal body temperature at 20 mg/kg, ip after 120 mins by inducible hypothermia test. The format is functional, organism-based. Set-up: dose 20 mg/kg.
The test system of assay [2] is Mus musculus. Kind of assay: Effect on hypothermia in Swiss albino mouse assessed as change in rectal body temperature at 5 mg/kg, ip after 30 mins by inducible hypothermia test. The format is functional, organism-based. Details: dose 5 mg/kg.
The subject of assay [3] is Mus musculus. Kind of assay: Effect on hypothermia in Swiss albino mouse assessed as change in rectal body temperature at 10 mg/kg, ip after 90 mins by inducible hypothermia test. The format is functional, organism-based. Set-up: dose 10 mg/kg.
The subject of assay [4] is Mus musculus. Description: Effect on hypothermia in Swiss albino mouse assessed as change in rectal body temperature at 5 mg/kg, ip after 60 mins by inducible hypothermia test. The format is functional, organism-based. Details: dose 5 mg/kg.
For assay [5], the system named is Mus musculus. Kind of assay: Effect on hypothermia in Swiss albino mouse assessed as change in rectal body temperature at 20 mg/kg, ip after 30 mins by inducible hypothermia test. The format is functional, organism-based. Details: dose 20 mg/kg.
Assay [6] deals with Mus musculus. Description: Effect on hypothermia in Swiss albino mouse assessed as change in rectal body temperature at 5 mg/kg, ip after 90 mins by inducible hypothermia test. Details: dose 5 mg/kg. The format is functional, organism-based.
Assay [7] has as its system Mus musculus. Description: Effect on hypothermia in Swiss albino mouse assessed as change in rectal body temperature at 10 mg/kg, ip after 30 mins by inducible hypothermia test. The format is functional, organism-based. Details: dose 10 mg/kg.
Assay [8] has as its system Mus musculus. Description: Effect on hypothermia in Swiss albino mouse assessed as change in rectal body temperature at 20 mg/kg, ip after 60 mins by inducible hypothermia test. The format is functional, organism-based. Details: dose 20 mg/kg.
The subject of assay [9] is Mus musculus. Description: Effect on hypothermia in Swiss albino mouse assessed as change in rectal body temperature at 20 mg/kg, ip dosed 15 mins after 0.1 mg/kg, sc WAY 100635 challenge measured after 30 mins by inducible hypothermia test. The format is functional, organism-based.
Assay [10] has as its system Mus musculus. Kind of assay: Effect on hypothermia in Swiss albino mouse assessed as change in rectal body temperature at 20 mg/kg, ip after 90 mins by inducible hypothermia test. The format is functional, organism-based. Details: dose 20 mg/kg.
Assay [11] concerns the target Sodium-dependent serotonin transporter (Rattus norvegicus, UniProt P31652). Kind of assay: Displacement of [3H]citalopram from SERT in rat cerebral cortex by liquid scintillation counting. The format is tissue-based. In general terms: In a radioligand displacement assay an active substance lowers the binding of a labelled ligand.
Assay [12] deals with Mus musculus. Kind of assay: Effect on hypothermia in Swiss albino mouse assessed as change in rectal body temperature at 20 mg/kg, ip dosed 15 mins after 0.1 mg/kg, sc WAY 100635 challenge measured after 60 mins by inducible hypothermia test. The format is functional, organism-based.
The target in assay [13] is T1, 5-hydroxytryptamine receptor 1A (Rattus norvegicus, UniProt P19327).
T1 sequence (P19327 whole entry): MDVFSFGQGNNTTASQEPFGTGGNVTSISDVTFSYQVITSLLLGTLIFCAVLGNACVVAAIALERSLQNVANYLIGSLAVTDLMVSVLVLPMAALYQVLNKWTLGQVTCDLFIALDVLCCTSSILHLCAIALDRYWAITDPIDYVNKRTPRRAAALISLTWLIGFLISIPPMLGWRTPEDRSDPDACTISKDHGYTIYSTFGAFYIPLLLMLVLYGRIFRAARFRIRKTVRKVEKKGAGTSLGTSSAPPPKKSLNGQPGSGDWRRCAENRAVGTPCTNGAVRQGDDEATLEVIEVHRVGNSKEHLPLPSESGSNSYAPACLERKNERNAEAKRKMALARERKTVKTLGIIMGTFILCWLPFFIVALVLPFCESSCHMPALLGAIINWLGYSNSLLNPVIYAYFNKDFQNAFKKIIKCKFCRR
Kind of assay: Displacement of [3H]8-OH-DPAT from 5-HT1A receptor in rat hippocampus. The format is tissue-based.

For assay [14], the system named is Mus musculus. Kind of assay: Effect on hypothermia in Swiss albino mouse assessed as change in rectal body temperature at 10 mg/kg, ip after 60 mins by inducible hypothermia test. Set-up: dose 10 mg/kg. The format is functional, organism-based.
Assay [15] relates to Mus musculus. Kind of assay: Effect on hypothermia in Swiss albino mouse assessed as change in rectal body temperature at 5 mg/kg, ip after 120 mins by inducible hypothermia test. The format is functional, organism-based. Set-up: dose 5 mg/kg.
Assay [16] has as its system Mus musculus. Kind of assay: Effect on hypothermia in Swiss albino mouse assessed as change in rectal body temperature at 10 mg/kg, ip after 120 mins by inducible hypothermia test. The format is functional, organism-based. Set-up: dose 10 mg/kg.
The subject of assay [17] is Mus musculus. Description: Antidepressant activity in Swiss albino mouse assessed as total immobility time at 10 mg/kg, ip administered 30 mins before test measured 6 mins test session after 2 mins habituation period by forced swimming test. The format is functional, organism-based. Details: dose 10 mg/kg.
Assay [18] relates to Mus musculus. Description: Antidepressant activity in Swiss albino mouse assessed as total immobility time at 20 mg/kg, ip administered 30 mins before test measured 6 mins test session after 2 mins habituation period by forced swimming test. The format is functional, organism-based. Set-up: dose 20 mg/kg.
For assay [19], the system named is Mus musculus. Kind of assay: Effect on hypothermia in Swiss albino mouse assessed as change in rectal body temperature at 2.5 mg/kg, ip after 120 mins by inducible hypothermia test. The format is functional, organism-based. Set-up: dose 2.5 mg/kg.
The subject of assay [20] is Mus musculus. Kind of assay: Effect on hypothermia in Swiss albino mouse assessed as change in rectal body temperature at 2.5 mg/kg, ip after 90 mins by inducible hypothermia test. The format is functional, organism-based. Details: dose 2.5 mg/kg.
Assay [21] relates to Mus musculus. Description: Effect on hypothermia in Swiss albino mouse assessed as change in rectal body temperature at 2.5 mg/kg, ip after 30 mins by inducible hypothermia test. The format is functional, organism-based. Set-up: dose 2.5 mg/kg.
Assay [22] has as its system Mus musculus. Description: Effect on hypothermia in Swiss albino mouse assessed as change in rectal body temperature at 2.5 mg/kg, ip after 60 mins by inducible hypothermia test. The format is functional, organism-based. Details: dose 2.5 mg/kg.
Assay [23] has as its system Mus musculus. Description: Effect on hypothermia in Swiss albino mouse assessed as change in rectal body temperature at 5 mg/kg, ip dosed 15 mins after 0.1 mg/kg, sc WAY 100635 challenge measured after 60 mins by inducible hypothermia test. The format is functional, organism-based.
The test system of assay [24] is Mus musculus. Description: Effect on hypothermia in Swiss albino mouse assessed as change in rectal body temperature at 5 mg/kg, ip dosed 15 mins after 0.1 mg/kg, sc WAY 100635 challenge measured after 30 mins by inducible hypothermia test. The format is functional, organism-based.
For assay [25], the system named is Mus musculus. Description: Effect on hypothermia in Swiss albino mouse assessed as change in rectal body temperature at 0.1 mg/kg, ip after 90 mins by inducible hypothermia test. The format is functional, organism-based. Set-up: dose 0.1 mg/kg.
The subject of assay [26] is Mus musculus. Kind of assay: Effect on hypothermia in Swiss albino mouse assessed as change in rectal body temperature at 0.1 mg/kg, ip after 60 mins by inducible hypothermia test. The format is functional, organism-based. Set-up: dose 0.1 mg/kg.
For assay [27], the system named is Mus musculus. Description: Effect on hypothermia in Swiss albino mouse assessed as change in rectal body temperature at 0.1 mg/kg, ip after 30 mins by inducible hypothermia test. The format is functional, organism-based. Details: dose 0.1 mg/kg.
For assay [28], the system named is Mus musculus. Description: Reduction of 8-OH-DPAT-induced hypothermia in Swiss albino mouse at 0.1 mg/kg, ip administered 45 mins prior 8-OH-DPAT challenge measured after 45 mins by inducible hypothermia test. The format is functional, organism-based. Details: dose 0.1 mg/kg.
The subject of assay [29] is Mus musculus. Description: Reduction of 8-OH-DPAT-induced hypothermia in Swiss albino mouse at 0.1 mg/kg, ip administered 45 mins prior 8-OH-DPAT challenge measured after 30 mins by inducible hypothermia test. The format is functional, organism-based. Set-up: dose 0.1 mg/kg.
The subject of assay [30] is Mus musculus. Kind of assay: Effect on hypothermia in Swiss albino mouse assessed as change in rectal body temperature at 0.1 mg/kg, ip after 120 mins by inducible hypothermia test. Details: dose 0.1 mg/kg. The format is functional, organism-based.
The subject of assay [31] is Mus musculus. Kind of assay: Reduction of 8-OH-DPAT-induced hypothermia in Swiss albino mouse at 0.1 mg/kg, ip administered 45 mins prior 8-OH-DPAT challenge measured after 60 mins by inducible hypothermia test. The format is functional, organism-based. Details: dose 0.1 mg/kg.
Assay [32] has as its system Mus musculus. Description: Reduction of 8-OH-DPAT-induced hypothermia in Swiss albino mouse at 0.1 mg/kg, ip administered 45 mins prior 8-OH-DPAT challenge measured after 15 mins by inducible hypothermia test. Set-up: dose 0.1 mg/kg. The format is functional, organism-based.

The source made the active and inactive calls. No cut-off for these calls is given here.

The values that follow come from ChEMBL document CHEMBL1649369, “Novel 4-aryl-pyrido[1,2-c]pyrimidines with dual SSRI and 5-HT(1A) activity. part 3” (Eur J Med Chem, 2011).

Sodium-dependent serotonin transporter, sequence (P31652 whole entry): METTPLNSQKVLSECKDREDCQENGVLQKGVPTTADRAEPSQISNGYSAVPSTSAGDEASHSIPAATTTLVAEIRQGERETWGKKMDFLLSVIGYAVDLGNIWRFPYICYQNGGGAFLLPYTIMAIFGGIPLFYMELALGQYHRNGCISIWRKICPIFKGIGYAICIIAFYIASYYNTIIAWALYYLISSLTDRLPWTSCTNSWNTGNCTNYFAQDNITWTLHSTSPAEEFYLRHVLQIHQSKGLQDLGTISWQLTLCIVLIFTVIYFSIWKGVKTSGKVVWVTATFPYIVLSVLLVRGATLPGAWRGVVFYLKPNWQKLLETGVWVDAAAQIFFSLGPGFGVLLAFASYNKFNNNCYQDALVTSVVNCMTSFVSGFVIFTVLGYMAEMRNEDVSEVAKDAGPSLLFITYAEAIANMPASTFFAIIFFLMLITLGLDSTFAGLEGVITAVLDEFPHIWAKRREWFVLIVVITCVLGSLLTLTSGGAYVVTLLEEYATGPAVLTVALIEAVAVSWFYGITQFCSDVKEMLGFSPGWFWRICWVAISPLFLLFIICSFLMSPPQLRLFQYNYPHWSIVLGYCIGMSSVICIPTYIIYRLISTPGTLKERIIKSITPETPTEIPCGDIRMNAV

What is called Ki is the dissociation constant of the complex between target and ligand, obtained from inhibition or displacement. As to `COc1ccccc1-c1c2n(c(=O)n(CCCCN3CCC(c4c[nH]c5ccccc45)CC3)c1=O)CCCC2`, the deltaT is 0 °C in assay [1]; -0.8 °C in assay [2]; -0.3 °C in assay [3]; -0.5 °C in assay [4]; -0.7 °C in [5]; -0.3 °C in [6]. In addition, the deltaT in assay [7] was -0.9 °C; in [8], -0.5 °C; in assay [9] it was -0.3 °C; in assay [10] it was -0.2 °C; in assay [12], -0.1 °C; in assay [14] it was -0.5 °C. For the same compound, the deltaT in assay [15] and in assay [16] was -0.2 °C throughout. Moreover, the figures for the inhibition constant (Ki) in assay [11] and in [13] were 134 nM and 19.9 nM, respectively.
Regarding `Cc1[nH]c2ccccc2c1C1CCN(CCCCn2c(=O)c(-c3ccccc3Cl)c3n(c2=O)CCCC3)CC1`, the Ki in assay [11] came to 1300 nM; in assay [13], 393 nM.
`COc1ccc(-c2c3n(c(=O)n(CCCCN4CCC(c5c[nH]c6ccccc56)CC4)c2=O)CCCC3)cc1`: the deltaT in assay [1] is -0.3 °C; in assay [2], -0.6 °C; in [3], -0.3 °C; in assay [4] it was -0.2 °C; in assay [5], -1.6 °C; in assay [6] it was -0.2 °C. The deltaT was -0.8 °C in [7]; -0.9 °C in assay [8]; -0.3 °C in assay [9]; -0.5 °C in assay [10]; -0.2 °C in assay [12]; -0.5 °C in [14]. The deltaT in assay [15] and in assay [16] was -0.2 °C in each case. Besides, the Ki in [11] is 50.4 nM; in assay [13], 32.4 nM. Besides, the result in [17] and in [18] was inactive.
Take `Cc1[nH]c2ccccc2c1C1CCN(CCCCn2c(=O)c(-c3ccc(F)cc3)c3n(c2=O)CCCC3)CC1`: the results for the Ki in [11] and in assay [13] were 147 nM and 114 nM, respectively.
With `O=c1c(-c2ccccc2F)c2n(c(=O)n1CCCCN1CCC(c3c[nH]c4ccccc34)CC1)CCCC2`, the deltaT in [2] is -1.3 °C; in assay [4] it was -0.8 °C; in assay [6] it was -0.5 °C; in assay [19] it was -0.1 °C; in assay [20], -0.1 °C; in assay [21], -0.5 °C. The deltaT in assay [22] was -0.2 °C; in assay [23], -0.1 °C; in [24] it was -0.2 °C; in assay [15] it was -0.3 °C. For the same compound, the Ki in assay [11] worked out at 68.4 nM; in assay [13], 41.3 nM.
For `O=c1c(-c2ccccc2Cl)c2n(c(=O)n1CCCCN1CCC(c3c[nH]c4ccccc34)CC1)CCCC2`, the deltaT is -0.1 °C in [1]; -0.5 °C in assay [2]; -0.1 °C in assay [3]; -0.2 °C in [4]; -1 °C in assay [5]; -0.2 °C in assay [6]. Moreover, the deltaT in assay [7] was -0.7 °C; in assay [8], -0.6 °C; in [10], -0.2 °C; in assay [14], -0.2 °C; in [15] it was -0.1 °C; in assay [16], 0 °C. Moreover, the Ki amounted to 147 nM in [11] and 62.3 nM in [13].
As for `Cc1ccccc1-c1c2n(c(=O)n(CCCCN3CCC(c4c(C)[nH]c5ccccc45)CC3)c1=O)CCCC2`, the inhibition constant Ki came out at 882 nM in assay [11] and 642 nM in [13].
For the compound `CC(C)NCC(O)COc1cccc2[nH]ccc12` (stereo unspecified), the deltaT in assay [25] is -0.1 °C; in [26], -0.1 °C; in [27], -0.2 °C; in assay [28] it was -0.1 °C; in assay [29], -0.1 °C; in [30], -0.1 °C. The deltaT in assay [23] was -0.1 °C; in [24] it was -0.2 °C; in assay [31], -0.1 °C; in [32] it was -0.1 °C.
